The record followed here is ChEMBL document CHEMBL4680085 (J Med Chem, 2016).

Active and inactive are the calls of the source. No cut-off for these calls is given here.

Data set [1] is described as follows: in vitro. As to conditions: human, HepG2 cells.
Description: Toxicity in human HepG2 cells assessed as cell viability at 300 uM by MTT assay relative to control
For data set [2], the target named is T1, Nuclear factor erythroid 2-related factor 2 (Homo sapiens) (UniProt Q16236).
T1 sequence (whole entry): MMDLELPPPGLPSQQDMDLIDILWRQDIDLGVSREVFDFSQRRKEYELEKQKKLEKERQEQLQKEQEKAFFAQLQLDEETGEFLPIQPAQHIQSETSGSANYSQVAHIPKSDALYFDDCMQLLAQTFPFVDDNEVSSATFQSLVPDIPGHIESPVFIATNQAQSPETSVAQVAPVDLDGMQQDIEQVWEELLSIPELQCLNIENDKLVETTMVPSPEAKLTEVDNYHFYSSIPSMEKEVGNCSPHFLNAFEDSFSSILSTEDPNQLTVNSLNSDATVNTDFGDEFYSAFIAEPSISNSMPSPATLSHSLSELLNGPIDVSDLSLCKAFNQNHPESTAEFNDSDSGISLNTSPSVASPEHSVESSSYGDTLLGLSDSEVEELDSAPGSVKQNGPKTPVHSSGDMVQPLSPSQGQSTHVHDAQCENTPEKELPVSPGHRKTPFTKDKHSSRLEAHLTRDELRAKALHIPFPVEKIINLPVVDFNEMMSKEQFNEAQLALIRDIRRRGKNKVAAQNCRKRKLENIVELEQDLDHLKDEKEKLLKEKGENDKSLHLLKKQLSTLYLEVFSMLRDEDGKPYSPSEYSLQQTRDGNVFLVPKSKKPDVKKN
Nature of the data set: Activation of NRF2 in human MCF-7/AREc32 cells at 10 to 30 uM incubated for 24 hrs by luciferase reporter gene assay. Format: cell-based. As to conditions: MCF7, filed as activator, dose 10-30 µM. A general note: A reporter such as luciferase makes a cellular process visible.

In data set [3] the test system is SH-SY5Y. Nature of the data set: Neuroprotection in human SH-SY5Y cells assessed as reduction in H2O2-induced cell death at 0.01 uM incubated for 24 hrs by MTT assay. Format: functional. Also noted: scale not given: the % may be the effect or the level left.
Data set [4] relates to SH-SY5Y. As to the kind of experiment: Neuroprotection in human SH-SY5Y cells assessed as reduction in H2O2-induced cell death at 1 uM incubated for 24 hrs by MTT assay. Format: functional. Also noted: scale not given: the % may be the effect or the level left.
Data set [5] in a line: in vitro. Particulars: human, HepG2 cells. This is another data set of the same source.
Description: Toxicity in human HepG2 cells assessed as cell viability at 1000 uM by MTT assay relative to control
Data set [6] concerns SH-SY5Y. As to the kind of experiment: Neuroprotection in human SH-SY5Y cells assessed as reduction in H2O2-induced cell death at 3 uM incubated for 24 hrs by MTT assay. Format: functional. Also noted: scale not given: the % may be the effect or the level left. A general note: Tetrazolium assays rely on reduction of a dye to a coloured formazan, in cell work by metabolically active cells.

Data set [7] has as its system SH-SY5Y. As to the kind of experiment: Neuroprotection in human SH-SY5Y cells assessed as reduction in beta-amyloid peptide (1-40)-induced cell death at 1 uM incubated for 24 hrs by MTT assay. Set-up: scale not given: the % may be the effect or the level left. Format: functional.
Data set [8] has as its system SH-SY5Y. As to the kind of experiment: Neuroprotection in human SH-SY5Y cells assessed as reduction in Rotenone/Oligomycin A -induced cell death at 3 uM incubated for 24 hrs by MTT assay. Format: functional. Set-up: scale not given: the % may be the effect or the level left.
The test system of data set [9] is SH-SY5Y. As to the kind of experiment: Neuroprotection in human SH-SY5Y cells assessed as reduction in Rotenone/Oligomycin A -induced cell death at 1 uM incubated for 24 hrs by MTT assay. Format: functional. Set-up: scale not given: the % may be the effect or the level left.
For data set [10], the system named is SH-SY5Y. As to the kind of experiment: Neuroprotection in human SH-SY5Y cells assessed as reduction in beta-amyloid peptide (1-40)-induced cell death at >0.01 uM incubated for 24 hrs by MTT assay. Format: functional, cell-based. Particulars: dose microM >0.01, time […].
In data set [11] the test system is SH-SY5Y. Nature of the data set: Neuroprotection in human SH-SY5Y cells assessed as reduction in beta-amyloid peptide (1-42)-induced cell death at 3 uM incubated for 24 hrs by MTT assay. Format: functional. Set-up: scale not given: the % may be the effect or the level left.
The test system of data set [12] is SH-SY5Y. As to the kind of experiment: Neuroprotection in human SH-SY5Y cells assessed as reduction in beta-amyloid peptide (1-40)-induced cell death at 3 uM incubated for 24 hrs by MTT assay. Format: functional. Also noted: scale not given: the % may be the effect or the level left.
Data set [13] relates to SH-SY5Y. Nature of the data set: Neuroprotection in human SH-SY5Y cells assessed as reduction in beta-amyloid peptide (1-42)-induced cell death at 1 uM incubated for 24 hrs by MTT assay. Format: functional. Also noted: scale not given: the % may be the effect or the level left.
Data set [14] deals with SH-SY5Y. As to the kind of experiment: Neuroprotection in human SH-SY5Y cells assessed as reduction in beta-amyloid peptide (1-42)-induced cell death at >0.01 uM incubated for 24 hrs by MTT assay. Format: functional, cell-based. As to conditions: dose microM >0.01, time […].
Data set [15] addresses T1, Nuclear factor erythroid 2-related factor 2 (Homo sapiens). Nature of the data set: Activation of NRF2 in human MCF-7/AREc32 cells at 3 uM incubated for 24 hrs by luciferase reporter gene assay. As to conditions: MCF7, filed as activator. Format: cell-based.
Data set [16] relates to SH-SY5Y. Nature of the data set: Neuroprotection in human SH-SY5Y cells assessed as reduction in Rotenone/Oligomycin A -induced cell death at 0.01 uM incubated for 24 hrs by MTT assay. Format: functional. Set-up: scale not given: the % may be the effect or the level left.
Data set [17] deals with SH-SY5Y. Nature of the data set: Neuroprotection in human SH-SY5Y cells assessed as reduction in H2O2-induced cell death at >0.01 uM incubated for 24 hrs by MTT assay. Format: functional, cell-based. As to conditions: dose microM >0.01, time […].
Data set [18] deals with T1, Nuclear factor erythroid 2-related factor 2 (Homo sapiens). Nature of the data set: Activation of NRF2 in human MCF-7/AREc32 cells assessed as concentration required to double Nrf2 transcriptional pathway by measuring specific luciferase reporter activity incubated for 24 hrs by luciferase reporter gene assay. Format: cell-based. As to conditions: MCF7.
In data set [19] the test system is SH-SY5Y. Nature of the data set: Neuroprotection in human SH-SY5Y cells assessed as reduction in beta-amyloid peptide (1-42)-induced cell death at 0.01 uM incubated for 24 hrs by MTT assay. Format: functional. Set-up: scale not given: the % may be the effect or the level left.
The subject of data set [20] is SH-SY5Y. Nature of the data set: Neuroprotection in human SH-SY5Y cells assessed as reduction in beta-amyloid peptide (1-40)-induced cell death at 0.01 uM incubated for 24 hrs by MTT assay. Format: functional. Also noted: scale not given: the % may be the effect or the level left.
For data set [21], the system named is SH-SY5Y. As to the kind of experiment: Neuroprotection in human SH-SY5Y cells assessed as reduction in Rotenone/Oligomycin A -induced cell death at >0.01 uM incubated for 24 hrs by MTT assay. Format: functional, cell-based. As to conditions: dose microM >0.01, time […].
Data set [22] can be described thus: in vitro. Particulars: human, HepG2 cells. This is another data set of the same source.
Description: Toxicity in human HepG2 cells assessed as cell viability at 100 uM by MTT assay relative to control

Regarding `COc1ccc2[nH]cc(CCNC(C)=O)c2c1` [MELATONIN], the viability (commonly a per cent measure of how many cells are alive, often set against a control) at 300 µM in the data set “in vitro [1]” was found to be 71.8%. Besides, the result in [2] and in data set [15] was Active. For the same compound, the Activity in the data set with SH-SY5Y [3] turned out to be 55.4%; in the data set with SH-SY5Y [4], 47.4%; in the data set on SH-SY5Y [6], 60.7%; in the data set with SH-SY5Y [7], 35.5%; with SH-SY5Y [8], 59.1%; with SH-SY5Y [9] it was 50.1%. The Activity in the data set on SH-SY5Y [11] worked out at 15.3%; with SH-SY5Y [12] it was 60.2%; in the data set with SH-SY5Y [13] it was 39.4%; in the data set on SH-SY5Y [16], 66.6%; in the data set with SH-SY5Y [19] it was 81.4%; in the data set with SH-SY5Y [20], 33%. This compound also yielded a viability at 1000 µM in “in vitro [5]” of 72.3%. The result with SH-SY5Y [10], in the data set with SH-SY5Y [14], with SH-SY5Y [17] and in the data set on SH-SY5Y [21] was inactive. In data set [18], the CD is > 60 µM. The same compound registered a viability at 100 µM in “in vitro [22]” of 91.4%.
